Assay results from patent US12496309B2, “Method for treatment of pancreatitis” (NovMetaPharma Co., Ltd., priority 2020, dated 2025).

What was measured:
Water solubility = type: physicochemical
CYP = CYP inhibition, all isoforms; type: in vitro ADME
[1] = MS (microsomal stability) h; type: in vitro ADME, human
[2] = MS (microsomal stability) d; type: in vitro ADME, dog
[3] = MS (microsomal stability) r; type: in vitro ADME, rat
[4] = MS (microsomal stability) m; type: in vitro ADME, mouse
PK = type: in vivo; details: for PK BA % / clearance / Cmax / half-life / Vd: in vivo; for clearance: read-out: PK CL; for half-life: read-out: PK T½ (converted); for Vd: read-out: PK Vss
Permeability (PAMPA) = type: in vitro ADME; details: for Papp: PAMPA
ERRα = ERRα (Homo sapiens, UniProt P11474); experiment: ERRα binding selectivity
ERα = ERα (Homo sapiens, UniProt P03372); experiment: ERα binding selectivity
hERG [5] = biological target: T1, hERG (Homo sapiens, UniProt Q12809); experiment: hERG binding
hERG [6] = biological target: T1, hERG; experiment: hERG current; type: cell-based
CYP 1A2 = CYP 1A2 (Homo sapiens, UniProt P05177); experiment: CYP inhibition 1A2; type: in vitro ADME
CYP 2C9 = CYP 2C9 (Homo sapiens, UniProt P11712); experiment: CYP inhibition 2C9; type: in vitro ADME
CYP 2C19 = CYP 2C19 (Homo sapiens, UniProt P33261); experiment: CYP inhibition 2C19; type: in vitro ADME
CYP 2D6 = CYP 2D6 (Homo sapiens, UniProt P10635); experiment: CYP inhibition 2D6; type: in vitro ADME
CYP 3A4 = CYP 3A4 (Homo sapiens, UniProt P08684); experiment: CYP inhibition 3A4; type: in vitro ADME
Single dose toxicity = details: in vivo, read-out: Single dose Tax, LD50
Description: Next, the inventors analyzed the toxicity of these compounds in vivo (Table 3). […]

ERRγ [7] = biological target: T2, ERRγ (Homo sapiens, UniProt P62508); experiment: ERRγ binding
T2 sequence (P62508 1-458): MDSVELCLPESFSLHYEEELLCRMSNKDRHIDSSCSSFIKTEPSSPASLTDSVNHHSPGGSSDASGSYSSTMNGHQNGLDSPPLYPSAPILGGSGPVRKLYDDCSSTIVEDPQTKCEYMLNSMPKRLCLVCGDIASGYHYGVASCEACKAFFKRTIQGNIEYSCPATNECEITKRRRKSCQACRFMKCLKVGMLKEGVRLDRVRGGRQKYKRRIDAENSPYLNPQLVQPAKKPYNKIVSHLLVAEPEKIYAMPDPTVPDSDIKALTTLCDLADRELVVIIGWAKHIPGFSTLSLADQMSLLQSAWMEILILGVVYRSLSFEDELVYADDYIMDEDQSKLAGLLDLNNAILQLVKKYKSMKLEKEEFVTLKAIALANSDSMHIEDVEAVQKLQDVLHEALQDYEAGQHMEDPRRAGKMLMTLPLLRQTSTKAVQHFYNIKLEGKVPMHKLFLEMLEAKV

ERRγ [8] = biological target: T2, ERRγ; experiment: ERRγ functional assay; type: biochemical
Plasma stability h = type: in vitro ADME, human
Plasma stability r = type: in vitro ADME, rat
[9] = system: Caerulein-induced acute pancreatitis; experiment: Caerulein-induced model of acute pancreatitis; type: in vivo, mouse; details: 20 mg/kg
Description: (§1) • Materials: Caerulein (C9026) and Taurolithocholic acid 3-sulfate disodium salt (TLCS; T0512) was purchased from Sigma. • Animal models: Eight to ten-week male C57BL/6 mice (Jackson Lab) were used according to an animal protocol approved by the Institutional Animal Care and Use Committee of Kyungpook National University. 1. Caerulein-Induced Model of Pancreatitis
Acute pancreatitis (AP) was induced by intraperitoneal injections of caerulein at 50 μg/kg/h given 6 times.
(§2) Upon completion of experiments with above-mentioned animal models (1) and (2), pancreas tissue were snap frozen in liquid nitrogen and stored at −80° C. for analysis of trypsin activity, for protein analysis by Western blots and for gene expression analysis by RT-qPCR. Pancreas were dissected and fixed in 10% neutral-buffered formalin and embedded in paraffin. Five-μm sections were prepared and stained with hematoxylin and eosin (H&E). Pancreas injury was determined by measuring serum amylase (K711-100, Biovision), serum lipase (MAK046, Sigma) and pancreatic tissue trypsin activity (Biovision) was determined using commercially available kit.
Next, the inventors analyzed the efficacy of the compound of Chemical Formula 1 in vivo using two different animal models of acute pancreatitis. […] They pretreated mice with a single dose of compound of Chemical Formula 1, 24 hours prior to Caerulein challenge. An additional dose of compound of Chemical Formula 1 was administered to the animals at the beginning of Caerulein challenge. Upon completion of the experimental timeline, these animals were sacrificed and serum and pancreas tissue samples were collected and analyzed.

[10] = system: TLCS-induced acute pancreatitis; experiment: Intraductal bile acid (TLCS) infusion model of pancreatitis; type: in vivo, mouse; details: 20 mg/kg
Description: as §1, §2
Upon completion of the experimental timeline, these animals were sacrificed and serum and pancreas tissue samples were collected and analyzed.

T1 sequence (Q12809 whole entry): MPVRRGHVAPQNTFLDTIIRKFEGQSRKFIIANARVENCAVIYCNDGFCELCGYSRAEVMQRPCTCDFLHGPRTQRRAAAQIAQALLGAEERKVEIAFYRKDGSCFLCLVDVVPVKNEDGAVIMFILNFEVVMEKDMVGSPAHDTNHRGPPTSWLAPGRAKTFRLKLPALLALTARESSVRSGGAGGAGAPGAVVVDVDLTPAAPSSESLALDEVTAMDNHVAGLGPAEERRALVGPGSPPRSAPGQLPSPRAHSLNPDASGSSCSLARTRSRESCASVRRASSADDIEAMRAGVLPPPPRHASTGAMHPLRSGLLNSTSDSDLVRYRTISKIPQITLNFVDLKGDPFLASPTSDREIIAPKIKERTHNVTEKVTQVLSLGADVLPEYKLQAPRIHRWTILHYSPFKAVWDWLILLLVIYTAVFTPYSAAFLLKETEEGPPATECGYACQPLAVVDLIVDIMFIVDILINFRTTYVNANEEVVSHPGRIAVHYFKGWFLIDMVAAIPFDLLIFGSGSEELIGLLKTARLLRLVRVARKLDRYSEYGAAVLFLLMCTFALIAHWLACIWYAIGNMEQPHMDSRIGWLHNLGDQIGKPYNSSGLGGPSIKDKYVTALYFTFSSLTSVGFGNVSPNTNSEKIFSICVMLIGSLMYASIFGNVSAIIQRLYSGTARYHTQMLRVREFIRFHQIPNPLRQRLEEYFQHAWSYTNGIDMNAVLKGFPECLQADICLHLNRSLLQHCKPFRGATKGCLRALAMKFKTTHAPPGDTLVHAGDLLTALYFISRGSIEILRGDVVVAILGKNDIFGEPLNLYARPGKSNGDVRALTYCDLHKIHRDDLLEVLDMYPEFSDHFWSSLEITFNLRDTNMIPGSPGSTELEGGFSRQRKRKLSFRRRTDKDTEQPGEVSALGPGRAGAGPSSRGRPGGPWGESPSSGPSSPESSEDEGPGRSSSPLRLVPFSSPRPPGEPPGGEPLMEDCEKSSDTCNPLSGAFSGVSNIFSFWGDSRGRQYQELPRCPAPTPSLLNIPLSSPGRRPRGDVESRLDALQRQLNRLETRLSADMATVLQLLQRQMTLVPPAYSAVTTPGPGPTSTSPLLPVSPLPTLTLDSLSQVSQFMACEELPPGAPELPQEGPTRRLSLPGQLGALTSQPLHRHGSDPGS
Chain of ERα (P03372 whole entry): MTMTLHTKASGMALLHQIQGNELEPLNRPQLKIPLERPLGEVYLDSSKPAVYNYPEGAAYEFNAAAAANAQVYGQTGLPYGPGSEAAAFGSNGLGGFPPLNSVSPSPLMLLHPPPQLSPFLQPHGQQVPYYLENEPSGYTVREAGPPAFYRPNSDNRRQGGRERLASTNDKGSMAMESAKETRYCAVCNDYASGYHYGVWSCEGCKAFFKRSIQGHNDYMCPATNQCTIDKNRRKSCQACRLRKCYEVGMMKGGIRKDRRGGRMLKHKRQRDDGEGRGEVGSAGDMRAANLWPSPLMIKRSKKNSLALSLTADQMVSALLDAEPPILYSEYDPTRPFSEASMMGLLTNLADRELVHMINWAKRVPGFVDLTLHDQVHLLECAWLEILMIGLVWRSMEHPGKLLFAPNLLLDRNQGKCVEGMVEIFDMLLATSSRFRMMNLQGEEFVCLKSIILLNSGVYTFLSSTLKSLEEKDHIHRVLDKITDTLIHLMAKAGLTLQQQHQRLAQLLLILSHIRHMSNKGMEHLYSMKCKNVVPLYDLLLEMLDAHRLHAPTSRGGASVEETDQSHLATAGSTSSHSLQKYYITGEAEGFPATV
Chain of CYP 2C19 (P33261 whole entry): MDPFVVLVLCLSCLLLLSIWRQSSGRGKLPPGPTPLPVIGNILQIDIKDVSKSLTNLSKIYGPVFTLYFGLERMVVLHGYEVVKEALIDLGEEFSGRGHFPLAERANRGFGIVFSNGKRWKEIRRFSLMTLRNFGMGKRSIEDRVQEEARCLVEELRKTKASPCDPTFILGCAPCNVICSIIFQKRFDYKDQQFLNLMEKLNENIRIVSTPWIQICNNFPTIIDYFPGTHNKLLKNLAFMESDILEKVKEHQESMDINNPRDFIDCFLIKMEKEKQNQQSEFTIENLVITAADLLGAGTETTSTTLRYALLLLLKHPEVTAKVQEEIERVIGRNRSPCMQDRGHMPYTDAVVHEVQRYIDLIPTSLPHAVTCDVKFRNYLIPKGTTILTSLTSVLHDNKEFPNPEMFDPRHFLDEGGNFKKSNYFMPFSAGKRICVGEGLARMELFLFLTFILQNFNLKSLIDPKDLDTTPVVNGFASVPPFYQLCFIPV
Chain of CYP 3A4 (P08684 whole entry): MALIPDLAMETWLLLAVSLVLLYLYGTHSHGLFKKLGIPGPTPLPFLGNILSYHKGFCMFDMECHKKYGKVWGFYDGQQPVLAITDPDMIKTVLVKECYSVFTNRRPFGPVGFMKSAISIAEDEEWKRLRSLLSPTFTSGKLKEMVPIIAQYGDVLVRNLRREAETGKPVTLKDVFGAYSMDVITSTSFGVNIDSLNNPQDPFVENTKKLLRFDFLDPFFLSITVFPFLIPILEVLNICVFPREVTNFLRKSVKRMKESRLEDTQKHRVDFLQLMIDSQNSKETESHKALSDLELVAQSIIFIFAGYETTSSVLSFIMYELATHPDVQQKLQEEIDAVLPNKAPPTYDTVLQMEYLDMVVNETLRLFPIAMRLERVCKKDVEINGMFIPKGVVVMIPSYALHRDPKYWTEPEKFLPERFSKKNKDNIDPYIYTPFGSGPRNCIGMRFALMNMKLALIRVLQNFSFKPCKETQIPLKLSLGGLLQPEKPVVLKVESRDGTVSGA
Chain of ERRα (P11474 whole entry): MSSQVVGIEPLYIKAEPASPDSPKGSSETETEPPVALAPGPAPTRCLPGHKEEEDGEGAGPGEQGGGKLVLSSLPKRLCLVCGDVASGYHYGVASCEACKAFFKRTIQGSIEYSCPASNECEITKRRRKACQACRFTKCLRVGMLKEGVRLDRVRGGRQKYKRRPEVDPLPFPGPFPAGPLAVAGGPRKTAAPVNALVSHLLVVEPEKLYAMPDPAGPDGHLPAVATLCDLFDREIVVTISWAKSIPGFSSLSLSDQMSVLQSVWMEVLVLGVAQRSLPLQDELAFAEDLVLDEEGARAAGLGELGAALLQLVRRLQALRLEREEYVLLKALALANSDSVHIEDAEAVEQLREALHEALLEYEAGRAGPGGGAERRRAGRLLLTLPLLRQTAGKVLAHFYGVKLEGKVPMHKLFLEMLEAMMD
Chain of CYP 1A2 (P05177 whole entry): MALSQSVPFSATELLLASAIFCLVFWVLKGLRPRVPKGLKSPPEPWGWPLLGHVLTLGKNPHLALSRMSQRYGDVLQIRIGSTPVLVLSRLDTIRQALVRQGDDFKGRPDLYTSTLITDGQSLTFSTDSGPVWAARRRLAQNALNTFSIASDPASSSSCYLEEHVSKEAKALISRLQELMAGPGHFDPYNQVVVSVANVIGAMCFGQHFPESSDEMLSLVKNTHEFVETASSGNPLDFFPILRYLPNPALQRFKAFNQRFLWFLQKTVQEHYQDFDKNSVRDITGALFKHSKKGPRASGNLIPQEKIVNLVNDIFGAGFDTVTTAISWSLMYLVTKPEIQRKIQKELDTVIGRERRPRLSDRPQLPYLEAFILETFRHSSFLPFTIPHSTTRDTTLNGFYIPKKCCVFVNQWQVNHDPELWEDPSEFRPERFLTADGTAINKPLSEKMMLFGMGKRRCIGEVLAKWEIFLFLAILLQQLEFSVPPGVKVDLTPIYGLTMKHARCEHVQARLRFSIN
Chain of CYP 2C9 (P11712 whole entry): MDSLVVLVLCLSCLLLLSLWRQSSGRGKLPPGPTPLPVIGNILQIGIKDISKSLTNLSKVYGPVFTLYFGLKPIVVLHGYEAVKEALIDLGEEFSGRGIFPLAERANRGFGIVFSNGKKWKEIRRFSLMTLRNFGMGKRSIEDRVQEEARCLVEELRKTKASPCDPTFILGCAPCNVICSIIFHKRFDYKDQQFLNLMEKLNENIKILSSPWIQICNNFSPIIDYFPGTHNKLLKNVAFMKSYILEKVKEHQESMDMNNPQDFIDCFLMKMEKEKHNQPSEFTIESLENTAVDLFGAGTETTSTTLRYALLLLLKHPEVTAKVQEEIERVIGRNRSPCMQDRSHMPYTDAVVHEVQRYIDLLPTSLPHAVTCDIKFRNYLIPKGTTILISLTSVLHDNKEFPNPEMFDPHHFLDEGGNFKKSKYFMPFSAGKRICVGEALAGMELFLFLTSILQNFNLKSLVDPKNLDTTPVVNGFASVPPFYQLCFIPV
Chain of CYP 2D6 (P10635 whole entry): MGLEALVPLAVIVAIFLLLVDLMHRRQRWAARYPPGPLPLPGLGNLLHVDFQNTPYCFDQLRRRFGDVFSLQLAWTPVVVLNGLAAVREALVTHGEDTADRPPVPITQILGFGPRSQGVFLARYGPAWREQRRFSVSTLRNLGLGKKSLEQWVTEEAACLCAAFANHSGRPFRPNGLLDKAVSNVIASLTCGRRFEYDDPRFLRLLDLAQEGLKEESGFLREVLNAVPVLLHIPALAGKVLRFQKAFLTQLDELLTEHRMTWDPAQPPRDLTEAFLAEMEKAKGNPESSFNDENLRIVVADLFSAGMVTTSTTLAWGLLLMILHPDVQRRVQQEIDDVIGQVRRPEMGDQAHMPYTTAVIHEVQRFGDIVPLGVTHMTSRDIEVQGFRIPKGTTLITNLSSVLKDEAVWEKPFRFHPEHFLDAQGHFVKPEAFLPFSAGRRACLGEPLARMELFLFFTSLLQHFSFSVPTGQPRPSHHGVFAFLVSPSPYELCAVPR

SMILES	solubility (Water solubility) [µg/mL]	CYP (% remaining at 10 μM), All (CYP)	MS (% of control) h [1]	MS (% of control) d [2]	MS (% of control) r [3]	MS (% of control) m [4]	PK BA % (PK) [%]	clearance (PK) [mL/min/kg]	PK iv AUC (PK) [μMh]	PK po AUC (PK) [μMh]	Papp (Permeability (PAMPA)) [×10⁻⁶ cm/s]	Cmax (PK) [nM]	half-life (PK) [h]	Vd (PK) [L/kg]	IC50 (hERG [5]) [µM]	IC50 (hERG [6]) [µM]	LD50 (Single dose toxicity) [mg/kg]	also measured
CN(C)CCOc1ccc(/C(=C(/CCCO)c2ccccc2)c2ccc(O)cc2)cc1 [GSK5182, reference compound]	> 1000	OK All >73%	43 % of control	10 % of control	26 % of control	7 % of control	8.4	44	0.89	0.68								
OCCC/C(=C(\c1ccc(O)cc1)c1ccc(C2CCN(C3CC3)CC2)cc1)c1ccccc1 [DMRC200699, (E)-5-(4-hydroxyphenyl)-5-(4-(N-cyclopropylpiperidin-4-yl)phenyl)-4-phenylpent-4-en-1-ol]	> 1000			92 % of control	92 % of control	84 % of control	46	68	0.50	2.24	0.35	380	3	12				
OCCC/C(=C(/c1ccc(C2CCN(C3CC3)CC2)cc1)c1cccc(O)c1)c1ccccc1 [DMRC200966, (E)-5-(5-hydroxyphenyl)-5-(4-(N-cyclopropylpiperidin-4-yl)phenyl)-4-phenylpent-4-en-1-ol]	> 1000	OK All >83%	62 % of control	57 % of control	50 % of control	25 % of control	58.2	45	0.85	4.93	0.014	1510	1.8	4.6	17	> 30		IC50 (ERRα): > 10 µM; IC50 (ERα): > 10 µM
CC(C)N1CCN(c2ccc(/C(=C(/CCCO)c3ccccc3)c3cccc(O)c3)cc2)CC1 [DMRC2001000, (E)-5-(5-hydroxyphenyl)-5-(4-(4-isopropylpiperazin-1-yl)phenyl)-4-phenylpent-4-en-1-ol]	> 1000		65 % of control	61 % of control	55 % of control	27 % of control			0.99	4.18							> 2000	CYP (% remaining at 10 μM) 1A2 (CYP 1A2): 100%; CYP (% remaining at 10 μM) 2C9 (CYP 2C9): 76%; CYP (% remaining at 10 μM) 2C19 (CYP 2C19): 100%; CYP (% remaining at 10 μM) 2D6 (CYP 2D6): 66%; CYP (% remaining at 10 μM) 3A4 (CYP 3A4): 3A4(48) %; Permeability (PAMPA) (Permeability (PAMPA)): 1.29 10^−6 cm/s
CC(C)N1CCN(c2ccc(/C(=C(/CCCO)c3ccccc3)c3ccc(O)cc3)cc2)CC1 [DMRC200434, (E)-5-(4-hydroxyphenyl)-5-(4-(4-isopropylpiperazin-1-yl)phenyl)-4-phenylpent-4-en-1-ol]	> 1000	OK All >64%	27 % of control	50 % of control	33 % of control	20 % of control	22	75	0.42	0.82	0.46	208	3.7	16	> 10	21.3	> 2000	IC50 (ERRγ [7]): 0.04 µM; IC50 (ERRγ [8]): 0.006 µM; Plasma Stability (% of remaining after 2 h) h (Plasma stability h): 92.1%; Plasma Stability (% of remaining after 2 h) r (Plasma stability r): 97.1%; Caerulein-induced acute pancreatitis, overall outcome [9]: rescues mice; Serum amylase ([9]; 24 h before and at start of Caerulein, vs Caerulein alone): dramatic reduction; Pancreatic histopathology (H&E) ([9]; vs Caerulein alone): dramatically improved; Pancreatic tissue trypsin activity ([9]; vs Caerulein alone): dramatic reduction; Serum lipase ([9]; vs Caerulein alone): dramatic reduction; Sodium Taurocholate-induced acute pancreatitis, overall outcome [10]: rescues mice
